Reference: patent publication US10004730B2, “Small molecules targeting androgen receptor nuclear localization and/or level in prostate cancer” (University of Pittsburgh-Of the Commonwealth System of …, priority 2011, dated 2018)

Tests used:
endogenous AR [1] = experiment: Endogenous AR nuclear localization in C4-2 cells by immunofluorescence; assay type: cell-based; conditions: 300 nM, hormone-free
Description: (§1) FIGS. 3A and 3B. […] FIG. 3A. […] Localization was assessed by fluorescence microscopy 4 hours after treatment. FIG. 3B.
(§2) FIGS. 6A, 6B, 6C and 6D. FIG. 6A. Structures of compounds SID 14730725 (3-(4-Ethoxy-phenyl)-6,7-dihydro-5H-pyrrolo[1,2-a]imidazole), SID 14742211 (3-(4-Chloro-phenyl)-6,7-dihydro-5H-pyrrolo[1,2-a]imidazole) and SID 3712502 (2-[(3,5-dimethyl-1,2-oxazol-4-yl)methylsulfanyl]-1-[4-(2,3-dimethylphenyl)piperazin-1-yl]ethanone). FIG. 6B. Effect of SID 14730725 and SID 3712502 at indicated concentrations (uM) on nuclear localization of AR in castration-resistant C4-2 prostate cancer cells cultured in complete RPMI media with 10% FBS. C4-2 cells were transfected with GFP-AR and subcellular localization of GFP-AR was determined after overnight treatment using fluorescent microscopy. FIG. 6C. Quantitative analysis of results in FIG. 6B. The percent of transfected cells displaying predominant nuclear localization of GFP-AR at in the presence of various concentrations of SID 14730725 and SID 3712502 were determined. FIG. 6D. SID 14730725 inhibited endogenous AR nuclear localization in C4-2 cells. Endogenous AR was detected by immunofluorescent staining using AR antibody N-20 (Santa Cruz Biotechnology). Nuclei were stained with Hoechst.
(§3) Hsp90 plays an important role in ligand-induced AR nuclear translocation. […]

GFP-AR [2] = molecular target: T1, GFP-AR (Homo sapiens, UniProt P10275); experiment: Localization of transiently transfected GFP-AR by fluorescence microscopy; assay type: cell-based; conditions: for GFP-AR localization: 1 nM
T1 construct: expressed in transfected cells; also PC3 and LNCaP (transient)
T1 sequence (P10275 1-920): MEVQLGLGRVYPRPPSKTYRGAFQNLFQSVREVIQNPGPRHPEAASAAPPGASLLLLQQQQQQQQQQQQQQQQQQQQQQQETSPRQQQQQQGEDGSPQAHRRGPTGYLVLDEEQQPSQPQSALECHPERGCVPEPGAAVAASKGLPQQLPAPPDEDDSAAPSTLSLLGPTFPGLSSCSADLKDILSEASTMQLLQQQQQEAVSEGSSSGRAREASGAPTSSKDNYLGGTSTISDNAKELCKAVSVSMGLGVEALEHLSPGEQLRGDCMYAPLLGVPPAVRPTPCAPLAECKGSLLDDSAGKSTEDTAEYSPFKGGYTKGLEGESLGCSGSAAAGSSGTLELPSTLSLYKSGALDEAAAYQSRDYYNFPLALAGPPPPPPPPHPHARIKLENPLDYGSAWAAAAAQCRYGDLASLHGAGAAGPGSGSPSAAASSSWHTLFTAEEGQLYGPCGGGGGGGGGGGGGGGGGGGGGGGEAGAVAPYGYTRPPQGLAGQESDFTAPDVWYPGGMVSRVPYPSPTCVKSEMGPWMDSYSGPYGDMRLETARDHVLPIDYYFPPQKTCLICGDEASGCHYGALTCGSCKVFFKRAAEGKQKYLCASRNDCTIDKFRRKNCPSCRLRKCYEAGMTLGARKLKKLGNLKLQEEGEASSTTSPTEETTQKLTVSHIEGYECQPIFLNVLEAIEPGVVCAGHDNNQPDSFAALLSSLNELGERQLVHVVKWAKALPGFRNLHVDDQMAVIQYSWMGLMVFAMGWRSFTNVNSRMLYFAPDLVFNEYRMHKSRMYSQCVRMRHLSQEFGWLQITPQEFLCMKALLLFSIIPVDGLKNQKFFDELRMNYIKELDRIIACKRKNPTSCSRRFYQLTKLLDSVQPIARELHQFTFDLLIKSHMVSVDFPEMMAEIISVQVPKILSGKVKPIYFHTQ
Description: FIGS. 2A and 2B. Localization of GFP-AR in AR-negative PC3, androgen-sensitive LNCaP, and CRPC C4-2 cells. […] PC3, LNCaP, and C4-2 cells were transfected with GFP-AR and localization was assessed in ligand-free conditions or in the presence of mibolerone by fluorescence microscopy within 24 hours of transfection. The results in FIG. 2B are from five transfections for each cell line in the absence of androgen. At least 50 cells were counted after each transfection. Error bars represent ±SEM.
as §1
FIGS. 6A, 6B, 6C and 6D. FIG. 6A. […] FIG. 6B. […] C4-2 cells were transfected with GFP-AR and subcellular localization of GFP-AR was determined after overnight treatment using fluorescent microscopy. FIG. 6C. Quantitative analysis of results in FIG. 6B. […] FIG. 6D. […] Endogenous AR was detected by immunofluorescent staining using AR antibody N-20 (Santa Cruz Biotechnology). Nuclei were stained with Hoechst.
A prerequisite for AR transcriptional activity is its nuclear localization. To determine whether the subcellular localization of AR was altered during the progression to castration-resistance, AR-negative PC3 prostate cancer cells, androgen-sensitive LNCaP cells and castration-resistant C4-2 cells were transfected with AR tagged to green fluorescent protein (GFP) and localization was assessed by fluorescence microscopy in hormone-free conditions.
Hsp90 plays an important role in ligand-induced AR nuclear translocation. […] To determine if the effect of hsp90 inhibition on endogenous AR in C4-2 cells was similar to its effect on transfected GFP-AR, immunofluorescence experiments were performed.

endogenous AR [3] = molecular target: T2, endogenous AR (Homo sapiens, UniProt P10275, T878A); experiment: Endogenous AR nuclear localization in C4-2 cells by immunofluorescence; assay type: cell-based; conditions: AR antibody N-20
T2 construct: endogenous in cells; host or cells: C4-2
Description: as §1, §2, §3

GFP-ER = molecular target: T3, GFP-ER (Homo sapiens, UniProt P03372); experiment: GFP-ER nuclear localization in transfected C4-2 cells; assay type: cell-based; conditions: 24 hours
T3 construct: expressed in transfected cells; host or cells: C4-2
Description: (§4) FIG. 7. The effect of SID 14730725 and SID 3712502 on nuclear localization of GFP-ER (Top panel) and GFP-GR (Bottom panel) in C4-2 cells. C4-2 cells were transfected with GFP-ER or GFP-GR overnight. The following day the cells were treated with different concentrations (uM) of the small molecules. The cells transfected with GFP-GR were co-treated with 0.5 μM Dexamethasone. Cells were imaged 24 hours after the treatment with the small molecules.

GFP-GR = molecular target: T4, GFP-GR (Homo sapiens, UniProt P04150); experiment: GFP-GR nuclear localization in transfected C4-2 cells; assay type: cell-based; conditions: co-treated with 0.5 μM Dexamethasone, 24 hours
T4 construct: expressed in transfected cells; host or cells: C4-2
Description: as §4

PC3 cells = experiment: Cell survival, crystal violet staining, PC3; assay type: cell-based; conditions: 48 hrs
Description: (§5) FIGS. 8A and 8B. Effect of SID 14730725 and SID 3712502 on survival of PC3 (FIG. 8A) and C4-2 cells (FIG. 8B). PC3 or C4-2 cells were plated in 12-well plates at 2,500 cell per well in RPMI 1640 complete medium. After 24 hrs, the cells were treated with SID 14730725 or SID 3712502 at the indicated concentrations for 48 hrs. The wells were washed with PBS thrice and fixed in 0.5% crystal Violet in methanol. C=control; treated with vehicle DMSO.

C4-2 cells = experiment: Cell survival, crystal violet staining, C4-2; assay type: cell-based; conditions: 48 hrs
Description: as §5

[4] = tested on: castration resistant C4-2 xenograft tumors; experiment: C4-2 xenograft tumors in castrated SCID mice; assay type: in vivo
Description: FIGS. 9A and 9B. FIG. 9A. SID 14730725 inhibits the growth of castration resistant C4-2 xenograft tumors. C4-2 tumors were established by sc injection of 1×10^6 cells resuspended in 0.25 ml RPMI complete media mixed with 0.25 ml of Matrigel into young adult male SCID mice. SCID mice were castrated and randomized when C4-2 tumor volume reach ˜200 ul. Mice received s.c. delivery of SID 14730725 (50 mg/Kg body weight) or vehicle control (corn oil) every other day for 2 weeks, beginning 4 days after castration. Each group consisted of 7 mice. Tumor volumes were measured using micro-calipers and calculated using the formula (length×width^2)/2. FIG. 9B. Body weight of animals was measured every other day. Bars represent the mean±SEM; **p<0.01; Red lines represent data from the animals treated with SID 14730725.

GFP-AR [5] = molecular target: T1, GFP-AR; experiment: GFP-AR localization in stably transfected C4-2-GFP-AR sublines / high throughput screen assay; assay type: cell-based; conditions: 5 uM, 24 hours; C4-2 stably transfected with GFP-AR; charcoal-stripped FBS medium
Description: The images were acquired 24 hours after the treatment of docetaxel at 5 uM or vehicle DMSO. C4-2 cells stably transfected with GFP-AR were changed to phenol red-free RPMI with 10% charcoal-stripped FBS medium before the addition of docetaxel. Nuclei of the cells were stained with Hoechst dye. Images were acquired by fluorescent microscopy.
Localization of GFP-AR signal was assessed by fluorescence microscopy overnight after treatment.
The C4-2-GFP-AR subclone was cultured in 384-well plates in complete RPMI media. We used regular complete media in high throughput assay because it contains castration levels of androgens. […] Images of GFP signals and Hoechst signals were acquired into separate channels on a Cellomics ArrayScan® V^TI system. Both nuclear and cytoplasmic GFP signals were quantified with the ArrayScan V^TI, which uses an image-based auto-focus system, and has the capability of imaging up to six excitation and emission channels. […] The Cellomics compartmental analysis algorithm was used to quantify the relative distribution of the GFP-AR between nuclear and cytoplasmic cellular compartments. […] The mask was eroded to reduce cytoplasmic contamination within the nuclear area, and the reduced mask was used to quantify the amount of target channel GFP fluorescence within the nucleus. […]

AR = AR (Homo sapiens, UniProt P10275); conditions: reported in earlier studies; cited from earlier work

T2 sequence (P10275 whole entry T878A): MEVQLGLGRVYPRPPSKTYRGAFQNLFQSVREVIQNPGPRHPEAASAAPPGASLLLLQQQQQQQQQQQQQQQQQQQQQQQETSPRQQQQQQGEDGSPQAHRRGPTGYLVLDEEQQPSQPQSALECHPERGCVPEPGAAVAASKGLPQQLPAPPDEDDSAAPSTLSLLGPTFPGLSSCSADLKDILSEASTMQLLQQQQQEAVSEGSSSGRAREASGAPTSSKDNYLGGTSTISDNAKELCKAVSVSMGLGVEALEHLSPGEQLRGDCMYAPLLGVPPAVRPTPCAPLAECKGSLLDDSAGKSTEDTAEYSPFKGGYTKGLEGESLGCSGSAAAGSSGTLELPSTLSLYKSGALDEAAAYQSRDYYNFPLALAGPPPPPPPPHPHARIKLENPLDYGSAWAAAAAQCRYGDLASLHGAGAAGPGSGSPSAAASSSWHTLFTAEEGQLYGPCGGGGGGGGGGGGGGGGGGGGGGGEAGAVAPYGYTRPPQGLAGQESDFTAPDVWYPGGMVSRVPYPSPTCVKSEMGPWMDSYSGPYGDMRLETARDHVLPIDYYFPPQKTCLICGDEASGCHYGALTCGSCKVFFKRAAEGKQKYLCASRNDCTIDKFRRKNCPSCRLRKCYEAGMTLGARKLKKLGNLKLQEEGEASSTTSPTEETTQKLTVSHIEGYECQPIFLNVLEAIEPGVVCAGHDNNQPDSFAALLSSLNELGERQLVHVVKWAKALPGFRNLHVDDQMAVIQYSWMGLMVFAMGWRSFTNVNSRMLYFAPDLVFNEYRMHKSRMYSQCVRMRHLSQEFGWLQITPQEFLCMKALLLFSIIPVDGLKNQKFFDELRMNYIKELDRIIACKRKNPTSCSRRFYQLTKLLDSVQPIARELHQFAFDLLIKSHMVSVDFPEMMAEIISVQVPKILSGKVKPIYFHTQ
T4 sequence (P04150 whole entry): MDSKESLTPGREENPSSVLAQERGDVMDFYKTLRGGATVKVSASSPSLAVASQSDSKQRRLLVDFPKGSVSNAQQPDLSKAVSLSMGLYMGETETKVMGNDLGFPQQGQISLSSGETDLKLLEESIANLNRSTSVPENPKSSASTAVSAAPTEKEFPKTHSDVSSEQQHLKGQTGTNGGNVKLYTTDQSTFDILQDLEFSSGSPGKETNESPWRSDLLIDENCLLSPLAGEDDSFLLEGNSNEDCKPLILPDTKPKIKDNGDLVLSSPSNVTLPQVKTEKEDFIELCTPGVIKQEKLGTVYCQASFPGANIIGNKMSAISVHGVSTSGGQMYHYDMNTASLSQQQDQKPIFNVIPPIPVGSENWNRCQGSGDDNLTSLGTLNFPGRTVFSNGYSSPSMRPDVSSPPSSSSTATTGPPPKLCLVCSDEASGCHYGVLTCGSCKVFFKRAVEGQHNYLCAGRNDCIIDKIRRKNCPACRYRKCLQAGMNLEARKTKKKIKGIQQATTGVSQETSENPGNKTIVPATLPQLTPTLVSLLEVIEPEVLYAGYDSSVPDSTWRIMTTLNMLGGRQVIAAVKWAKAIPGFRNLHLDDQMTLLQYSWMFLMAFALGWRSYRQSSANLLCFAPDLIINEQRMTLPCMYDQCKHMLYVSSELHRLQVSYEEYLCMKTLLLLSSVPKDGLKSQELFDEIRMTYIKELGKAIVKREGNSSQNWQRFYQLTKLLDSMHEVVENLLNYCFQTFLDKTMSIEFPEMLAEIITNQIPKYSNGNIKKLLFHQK
T3 sequence (P03372 whole entry): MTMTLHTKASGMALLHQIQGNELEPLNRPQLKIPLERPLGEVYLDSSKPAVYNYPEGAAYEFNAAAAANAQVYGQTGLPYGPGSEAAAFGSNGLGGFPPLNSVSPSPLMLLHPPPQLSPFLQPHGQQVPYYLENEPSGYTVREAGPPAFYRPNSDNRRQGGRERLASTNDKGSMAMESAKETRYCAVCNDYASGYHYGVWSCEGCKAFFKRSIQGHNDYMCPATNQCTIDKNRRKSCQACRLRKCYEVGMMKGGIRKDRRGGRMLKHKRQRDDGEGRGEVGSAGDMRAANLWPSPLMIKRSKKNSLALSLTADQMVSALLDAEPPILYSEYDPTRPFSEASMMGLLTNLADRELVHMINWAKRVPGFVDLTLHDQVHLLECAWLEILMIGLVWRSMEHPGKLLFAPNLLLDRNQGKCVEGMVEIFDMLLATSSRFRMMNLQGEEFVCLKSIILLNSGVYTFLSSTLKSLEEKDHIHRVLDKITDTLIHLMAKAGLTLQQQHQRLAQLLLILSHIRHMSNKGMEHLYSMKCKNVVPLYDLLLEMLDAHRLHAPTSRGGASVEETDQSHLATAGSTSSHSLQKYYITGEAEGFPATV

C=CCNC1=C2C[C@@H](C)C[C@H](OC)[C@H](O)[C@@H](C)/C=C(\C)[C@H](OC(N)=O)[C@@H](OC)/C=C\C=C(/C)C(=O)NC(=CC1=O)C2=O [17-AAG, reference compound]
endogenous AR nuclear expression (endogenous AR [1]): a decrease in nuclear AR expression was observed

CCOc1ccc(-c2cnc3n2CCC3)cc1 [SID 14730725, 3-(4-Ethoxy-phenyl)-6,7-dihydro-5H-pyrrolo[1,2-a]imidazole]
blocking AR nuclear localization, dependence on androgen level (GFP-AR [2]; absence or very low levels of androgens): more effective in blocking AR nuclear localization in the absence or in the presence of very low levels of androgens
GFP-AR nuclear localization (GFP-AR [2]; transfected C4-2 cells, complete RPMI with 10% FBS, overnight treatment): effectively inhibited
endogenous AR nuclear localization (endogenous AR [3]): inhibited
localization of GFP-ER (GFP-ER): no effect
localization of GFP-GR (GFP-GR): no effect
cytotoxicity (PC3 cells): little or no cytotoxicity
cytotoxicity (C4-2 cells): little or no cytotoxicity
body weight of injected mice ([4]; 50 mg/Kg s.c. every other day): did not affect the body weight
growth of C4-2 xenograft tumor ([4]; 50 mg/Kg s.c. every other day for 2 weeks, castrated SCID mice): able to inhibit the growth of a C4-2 xenograft tumor with statistical significance

CC(=O)O[C@@]12CO[C@@H]1C[C@H](O)[C@@]1(C)C(=O)[C@H](O)C3=C(C)[C@@H](OC(=O)[C@H](O)[C@@H](NC(=O)OC(C)(C)C)c4ccccc4)C[C@@](O)([C@@H](OC(=O)c4ccccc4)[C@H]21)C3(C)C [docetaxel]
AR nuclear localization in castration-resistant C4-2 cells (GFP-AR [5]): no significant effect
AR nuclear translocation (AR): can inhibit androgen-dependent AR nuclear translocation

C[C@@H]1CC2=CC(=O)CC[C@@H]2[C@H]2CC[C@@]3(C)[C@@H](CC[C@]3(C)O)[C@@H]21 [mibolerone]
GFP-AR localization (GFP-AR [2]; C4-2 cells): induced complete nuclear localization
GFP-AR localization (GFP-AR [2]; LNCaP cells): induced complete nuclear localization
GFP-AR localization (GFP-AR [2]; PC3 cells): induced complete nuclear localization

C[C@@H]1C[C@H]2O[C@@H]2/C=C\C=C\C(=O)Cc2c(Cl)c(O)cc(O)c2C(=O)O1 [radicicol]
nuclear localization of GFP-AR (GFP-AR [2]; C4-2 cells, data not shown): prevented
